“Also recorded” adds a separate entry of the source.
Assays:
HeLa nuclear KDACs = experiment: Fluor-de-Lys HDAC fluorometric activity assay with HeLa nuclear extract; format: biochemical; conditions: for IC50: HeLa nuclear extract, up to 20 µM, read-out: HDAC Inhibition IC50; for IC20: concentration inhibiting HDAC activity by 20%, read-out: HDAC Inhibition IC20
Method: Total zinc-dependent KDAC (classes I, II and IV) activity was measured using the Fluor-de-Lys^TM HDAC fluorometric activity assay kit (BioMol, Exeter, UK), as per manufacturers protocol. Briefly, HeLa nuclear extract, potential inhibitor (5 nM–20 μM) and assay buffer were incubated in a 96-well fluorometric plate at 37 °C for 15 min. Acetylated substrate (100 μM) was added and the mixture incubated at 37 °C for a further 20 min. The developer was added and the mixture incubated at 37 °C for a further 15 min. Fluorescence was measured using a microplate reader (λex = 360 nm, λem = 460 nm). Percentage KDAC activity and thus KDAC inhibition was determined by quantification of fluorescence obtained in the presence versus absence of the respective inhibitor.

[1] = system: MCF7 breast cancer cell line; experiment: MTT cellular viability assay, MCF7; format: cell-based; conditions: Homo sapiens, 96 h
Method: (§1) The human A2780 ovarian (#93112519) and MCF-7 breast (#86012803) cancer cell lines were obtained from the European Cell Culture Collection (ECACC; Salisbury, UK). The human cardiac ventricular AC16 cell line (#SCC109) was obtained from Merck/Millipore (UK). The A2780 and MCF-7 cell lines were maintained in RPMI-1640 medium and the AC16 cell line was maintained in DMEM/F12 medium. Culture medium of all three cell lines was supplemented with 10% heat-inactivated foetal bovine serum (FBS) and 2 mM L-glutamine, with the cells maintained in a humidified 5% CO2 atmosphere at 37 °C. The media was changed every 72h and the cells passaged via trypsinisation (Trypsin EDTA, 0.25%) before reaching confluency.
(§2) Cytotoxicity of each compound against the cell lines was assessed using the MTT assay. Cells were seeded in three replicates into 96-well plates at a density of 2 × 10^3/well for 24h to facilitate cell attachment. Media was replaced with that containing either test compound (0–10µM) for A2780 and MCF7 cell lines, single concentration (10 µM) test compound for AC16 cell line, or drug vehicle (dimethyl sulphoxide; DMSO) and the cells incubated for a further 96 h at 37 °C in a humidified 5% CO2 atmosphere. […] Chemosensitivity was thereafter assessed using a standard 3-[4, 5-dimethylthiazolyl]-2,5-diphenyltetrazolium bromide (MTT) assay, with the optical density determined at 540 nm as an indicator of cellular viability.

A498 = experiment: NCI-60 cytotoxicity screen; format: cell-based; conditions: Homo sapiens, NCI-60, 48 h, renal
Excerpt: (§3) Compounds 3–7 were submitted to the US National Cancer Institute (NIH, Bethesda, Maryland) for screening against the NCI-60 panel of human cancer cell lines, as per standard protocol.

H226 = experiment: NCI-60 cytotoxicity screen; format: cell-based; conditions: Homo sapiens, NCI-60, 48 h, NSCLC
Excerpt: as §3

HOP-92 = experiment: NCI-60 cytotoxicity screen; format: cell-based; conditions: Homo sapiens, NCI-60, 48 h, NSCLC
Excerpt: as §3

HT29 = experiment: NCI-60 cytotoxicity screen; format: cell-based; conditions: Homo sapiens, HT-29; NCI-60, 48 h, colon
Excerpt: as §3

MALME-3M = experiment: NCI-60 cytotoxicity screen; format: cell-based; conditions: Homo sapiens, read-out: MALME-3M cytotoxicity IC50, NCI-60, 48 h, melanoma
Excerpt: as §3

MOLT-4 = experiment: NCI-60 cytotoxicity screen; format: cell-based; conditions: Homo sapiens, NCI-60, 48 h, leukaemia
Excerpt: as §3

SK-OV-3 = experiment: NCI-60 cytotoxicity screen; format: cell-based; conditions: Homo sapiens, NCI-60, 48 h, ovarian
Excerpt: as §3

OVCAR-5 = experiment: NCI-60 cytotoxicity screen; format: cell-based; conditions: Homo sapiens, NCI-60, 48 h, ovarian
T-47D = experiment: NCI-60 cytotoxicity screen; format: cell-based, human; conditions: for IC50: Homo sapiens, T47D, NCI-60, 48 h, breast
acetylated histone H4 = experiment: Flow cytometric analysis of histone H4 acetylation in A2780 cells; format: cell-based, human; conditions: A2780, 24 h, 5 µM or 10 µM
Method: (§4) The method was adapted from Ronzoni et al.[67] as previously described. A2780 cells were exposed to test compounds (0–10 µM) for 24 h, fixed with ice-cold ethanol (70% v/v) and permeabilised in the presence of 0.1% Triton-X. Non-specific protein binding was blocked using normal goat serum prior to incubation with or without primary antibodies raised against either anti-hyperacetylated Histone H4 (Penta) antibody (Upstate Biotechnology, USA) or acetylated tubulin (Sigma-Aldrich, UK), followed by incubation with FITC-conjugated secondary antibody (Dako). Cells were incubated in propidium iodide (PI) staining buffer (PBS with 50 µg/ml PI and 10 µg/ml RNase A) and subsequently analysed by flow cytometry (BD FACSCalibur; Becton Dickinson, UK). At least 15 000 events per sample were acquired and expression determined based on the detection of FITC fluorescence through the FL1 channel (530/30 nm bandpass optical filter), with cell doublets discriminated by forward/side scatter and background fluorescence omitted via comparison to unlabelled controls. Expression analysis was performed using CellQuest™ software (Becton Dickinson, UK).

acetylated tubulin = experiment: Flow cytometric analysis of tubulin acetylation in A2780 cells; format: cell-based, human; conditions: A2780, 24 h, 10 µM
Method: as §4

[2] = system: AC16 ventricular cardiac cell line; experiment: MTT cellular viability assay, AC16; format: cell-based; conditions: Homo sapiens, 96 h, single concentration 10 µM
Method: as §1, §2

K562 = experiment: NCI-60 cytotoxicity screen; format: cell-based; conditions: Homo sapiens, NCI-60, 48 h, leukaemia
MDA-MB-231 = experiment: NCI-60 cytotoxicity screen; format: cell-based; conditions: Homo sapiens, MDA-MB-231, read-out: MDA-MB-231 cytotoxicity IC50; NCI-60, 48 h, breast
[3] = Maximum tolerated dose evaluation in nude mice; format: in vivo
Excerpt: Female CD-1 (Crl:CD1-Foxn1^nu) immunodeficient nude mice aged 6–12 weeks were used (Charles River, Margate UK). Mice were kept in stainless steel cages housed in isolation cabinets in an air-conditioned room with regular alternating cycles of light and darkness, receiving Teklad 2018 diet (Envigo, Blackthorn, UK) and water ad libitum. Before experimentation, all mice were allowed to acclimatise for one week to their environment. Environmental enrichment was provided in the form of Perspex “mouse houses”, chewing blocks and exercise wheels.
For evaluation of the maximum tolerated dose (MTD), two mice were treated at each of the three dose levels evaluated ([…]). […] Mice were observed daily for signs of deleterious effects and bodyweight measured frequently. […] If no deleterious effects were seen after at least 14 days of study, then the animals were euthanised by isoflurane anaesthesia followed by cervical dislocation, and the dose considered non-toxic.

HDAC2 = HDAC2 (Homo sapiens, UniProt Q92769); experiment: Inhibition of individual recombinant KDACs
Sequence of HDAC2 (Q92769 whole entry): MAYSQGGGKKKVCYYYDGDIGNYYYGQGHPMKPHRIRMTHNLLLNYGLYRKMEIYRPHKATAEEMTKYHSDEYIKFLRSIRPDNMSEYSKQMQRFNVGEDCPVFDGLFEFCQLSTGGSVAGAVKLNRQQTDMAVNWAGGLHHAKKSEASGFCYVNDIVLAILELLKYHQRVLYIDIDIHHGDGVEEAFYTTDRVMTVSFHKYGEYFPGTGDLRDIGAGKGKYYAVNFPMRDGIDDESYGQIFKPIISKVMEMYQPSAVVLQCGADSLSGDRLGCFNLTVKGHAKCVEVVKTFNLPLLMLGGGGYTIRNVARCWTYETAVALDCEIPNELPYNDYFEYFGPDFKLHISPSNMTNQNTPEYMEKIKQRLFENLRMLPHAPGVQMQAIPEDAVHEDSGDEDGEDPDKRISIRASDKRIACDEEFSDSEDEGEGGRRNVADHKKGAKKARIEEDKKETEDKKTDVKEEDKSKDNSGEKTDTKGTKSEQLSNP

SMILES | IC50 (HeLa nuclear KDACs) | IC50 [1] | IC50 (A498) | IC50 (H226) | IC50 (HOP-92) | IC50 (HT29) | IC50 (MALME-3M) | IC50 (MOLT-4) | IC50 (SK-OV-3) | IC50 (OVCAR-5) | IC50 (T-47D) | acetylated histone H4 (flow cytometry) (acetylated histone H4) | tubulin acetylation (flow cytometry) (acetylated tubulin) | IC20 (HeLa nuclear KDACs) | IC50 [2] | IC50 (K562) | IC50 (MDA-MB-231) | further results
Nc1ccccc1NC(=O)c1ccc(CNC(=O)OCc2cccnc2)cc1 [Compound 1, Entinostat, reference compound] | 3 ± 0.2 µM | 0.4 ± 0.1 µM | 0.36 µM | 0.6 µM | 0.04 µM | 1.03 µM | 0.58 µM | 1.93 µM | 2.75 µM | 1.05 µM | 0.46 µM | Increased acetylated histone H4 | No change in Tubulin acetylation status; also recorded: neither 1 nor 7 induced a measurable change in tubulin acetylation |  |  |  |  | 
C=C(CN1CCN(c2ccccc2C(F)(F)F)CC1)c1ccc(C(=O)Nc2ccccc2N)cc1 [Compound 3, N-(2-aminophenyl)-4–(3-(4–(2-(trifluoromethyl)phenyl)piperazin-1-yl)prop-1-en-2-yl)benzamide] | > 20 µM | 7.3 ± 0.4 µM | 3.55 µM | 7.78 µM | 1.85 µM | 4.09 µM | 4.18 µM | 0.13 µM | 11 µM | 11.8 µM | 7.67 µM |  |  | 1.5 ± 0.8 µM | > 10 µM | 1.54 µM | 4.68 µM | 
C=C(CN1CCN(c2cccc(C(F)(F)F)n2)CC1)c1ccc(C(=O)Nc2ccccc2N)cc1 [Compound 7, N-(2-aminophenyl)-4–(3-(4–(6-(trifluoromethyl)pyridin-2-yl)piperazin-1-yl)prop-1-en-2-yl)benzamide] | > 20 µM | 0.8 ± 0.3 µM | 0.97 µM | 13.4 µM |  | 0.56 µM | 1.06 µM | 0.86 µM | 2.55 µM | 0.71 µM | 3.01 µM | Increased acetylated histone H4; also recorded: Increased induction in histone H4 acetylation | No change in Tubulin acetylation status; also recorded: neither 1 nor 7 induced a measurable change in tubulin acetylation | 0.8 ± 0.2 µM | > 10 µM |  | 4.62 µM | systemic toxicity ([3]; 100 mg/kg i.p., 5 consecutive days): No systemic toxicity; MTD ([3]; female, CD-1 nude (Crl:CD1-Foxn1^nu), mouse, in vivo, ip, single dose on 5 consecutive days): 100 mg/kg; IC50 (HDAC2): 3.97 µM

The next lines start with results.

IC50 (HeLa nuclear KDACs) | IC50 [1] | SMILES | IC50 (A498) | IC50 (H226) | IC50 (HOP-92) | IC50 (HT29) | IC50 (MALME-3M) | IC50 (MOLT-4) | IC50 (SK-OV-3) | IC50 (OVCAR-5) | IC50 (T-47D) | acetylated histone H4 (flow cytometry) (acetylated histone H4) | tubulin acetylation (flow cytometry) (acetylated tubulin) | IC20 (HeLa nuclear KDACs) | IC50 [2] | IC50 (K562) | IC50 (MDA-MB-231) | further results
> 20 µM | 1.4 ± 0.1 µM | C=C(CN1CCN(c2cccc(C(F)(F)F)c2)CC1)c1ccc(C(=O)Nc2ccccc2N)cc1 [Compound 4, N-(2-aminophenyl)-4–(3-(4–(3-(trifluoromethyl)phenyl)piperazin-1-yl)prop-1-en-2-yl)benzamide] | 0.01 µM | 1.89 µM | 1.51 µM | 1.46 µM |  | 0.13 µM |  | 6.62 µM | 13.2 µM |  |  | 5 ± 1.5 µM | > 10 µM | 0.18 µM | 0.94 µM | fold less sensitive than to 1, T-47D (T-47D; T-47D breast cell line): > 28 fold
> 20 µM | 0.4 ± 0.4 µM | C=C(CN1CCN(c2ccc(C(F)(F)F)cc2)CC1)c1ccc(C(=O)Nc2ccccc2N)cc1 [Compound 5, N-(2-aminophenyl)-4–(3-(4–(4-(trifluoromethyl)phenyl)piperazin-1-yl)prop-1-en-2-yl)benzamide] | 7.67 µM | 7.52 µM | 3.94 µM | 75.7 µM | 19.3 µM | 0.6 µM | 12.1 µM | > 100 µM | 21.8 µM |  |  | 5.8 ± 1.8 µM | > 10 µM | 0.3 µM | 3.6 µM | 
> 20 µM | 3.2 ± 0.8 µM | C=C(CN1CCN(c2ccccn2)CC1)c1ccc(C(=O)Nc2ccccc2N)cc1 [Compound 6, N-(2-aminophenyl)-4–(3-(4-(pyridin-2-yl)piperazin-1-yl)prop-1-en-2-yl)benzamide] |  |  | 5.7 µM |  |  |  | 1.3 µM | 6.1 µM | 1.23 µM |  |  | > 10 µM | > 10 µM | 0.96 µM | 2.17 µM | 

Source: article PMC12217109, “Development of novel benzamide class I selective lysine deacetylase inhibitors as potent anticancer agents” (Journal of Enzyme Inhibition and Medicinal Chemistry, 2025)
